Values after ≈ are worked out from the molar mass of the structure shown.
How the values were obtained:
[1] = Cytotoxicity, AlamarBlue method; type: cell-based, human; conditions: human
In short: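 Macrophages derived from healthy-donor PBMC monocytes (5 × 10^4 cells/well) were treated with compound for 72 h at 37 °C. Viability was read by AlamarBlue (10%, overnight, 540/590 nm fluorescence). Cytotoxicity was read as LDH release in serum-free medium, with specific lysis = (treated − spontaneous)/(maximum − spontaneous) × 100.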

[2] = tested on: Acinetobacter baumannii ATCC19606T; assay: MIC, antibacterial specificity; type: cell-based
[3] = tested on: Mycobacterium smegmatis mc2155 ATCC700084T; assay: MIC, antibacterial specificity; type: cell-based
[4] = tested on: panel of selected bacterial species; assay: Spectrum of activity, average MIC per bacterial group; type: cell-based

With `CN(C)CCCN1c2ccccc2Sc2ccc(Cl)cc21` [CPZ, chlorpromazine] the CC50 at 3 days [1] was 22.2 µM and the CC90 at 3 days [1] was 37 µM.

In the case of `CCCOc1ccc(-c2cc(OCCN3CCNCC3)c3ccccc3n2)cc1` [PQQ4R, 4-(2-(piperazin-1-yl)ethoxy)-2-(4-propoxyphenyl) quinolone], the MIC [2] is reported as 128 µg/mL (≈ 327 µM), the MIC [3] is reported as 32 µg/mL (≈ 81.7 µM) and the “average MIC” value ([4]; Gram-negative bacteria) is reported as no less than 128 µg/mL. For the same compound, the “average MIC” value ([4]; Gram-positive bacteria) was 50 µg/mL and the “average MIC” value ([4]; acid-fast bacteria) was 32 µg/mL.

From PMC5433425 (PeerJ, 2017)
